Experimental data taken from ChEMBL document CHEMBL5046315, “CRCM5484: A BET-BDII Selective Compound with Differential Anti-leukemic Drug Modulation” (J Med Chem, 2022).
Active and inactive are the calls of the source.

Tests used:
Assay type in all cases: functional, cell-based
U-937 [1] = test: Potentiation of dexamethasone-induced antileukemic activity against human U-937 cells at 4.3 uM in presence of bone-marrow derived stromal cell-conditioned medium
U-937 [2] = test: Potentiation of panobinostat-induced antileukemic activity against human U-937 cells at 4.3 uM in presence of bone-marrow derived stromal cell-conditioned medium
U-937 [3] = test: Potentiation of vincristine-induced antileukemic activity against human U-937 cells at 4.3 uM in presence of bone-marrow derived stromal cell-conditioned medium
U-937 [4] = test: Potentiation of luminespid-induced antileukemic activity against human U-937 cells at 4.3 uM in presence of bone-marrow derived stromal cell-conditioned medium
MOLM-14 [5] = test: Potentiation of MK2206-induced antileukemic activity against human MOLM-14 cells at 4.3 uM in presence of bone-marrow derived stromal cell-conditioned medium
U-937 [6] = test: Potentiation of midostaurin-induced antileukemic activity against human U-937 cells at 4.3 uM in presence of bone-marrow derived stromal cell-conditioned medium
CCRF-CEM [7] = test: Potentiation of BKM120-induced antileukemic activity against human CCRF-CEM cells at 4.3 uM in presence of bone-marrow derived stromal cell-conditioned medium
U-937 [8] = test: Potentiation of vorinostat-induced antileukemic activity against human U-937 cells at 4.3 uM in presence of bone-marrow derived stromal cell-conditioned medium
CCRF-CEM [9] = test: Potentiation of rigosertib-induced antileukemic activity against human CCRF-CEM cells at 4.3 uM in presence of bone-marrow derived stromal cell-conditioned medium
MOLM-14 [10] = test: Potentiation of clofarabine-induced antileukemic activity against human MOLM-14 cells at 4.3 uM in presence of bone-marrow derived stromal cell-conditioned medium
U-937 [11] = test: Potentiation of ruxolitinib-induced antileukemic activity against human U-937 cells at 4.3 uM in presence of bone-marrow derived stromal cell-conditioned medium
MOLM-14 [12] = test: Potentiation of topotecan-induced antileukemic activity against human MOLM-14 cells at 4.3 uM in presence of bone-marrow derived stromal cell-conditioned medium
CCRF-CEM [13] = test: Potentiation of vorinostat-induced antileukemic activity against human CCRF-CEM cells at 4.3 uM in presence of bone-marrow derived stromal cell-conditioned medium
MOLM-14 [14] = test: Potentiation of quizartinib-induced antileukemic activity against human MOLM-14 cells at 4.3 uM in presence of bone-marrow derived stromal cell-conditioned medium
CCRF-CEM [15] = test: Potentiation of EPZ5676-induced antileukemic activity against human CCRF-CEM cells at 4.3 uM in presence of bone-marrow derived stromal cell-conditioned medium
U-937 [16] = test: Potentiation of MK2206-induced antileukemic activity against human U-937 cells at 4.3 uM in presence of bone-marrow derived stromal cell-conditioned medium
U-937 [17] = test: Potentiation of idarubicin-induced antileukemic activity against human U-937 cells at 4.3 uM in presence of bone-marrow derived stromal cell-conditioned medium
CCRF-CEM [18] = test: Potentiation of asparaginase-induced antileukemic activity against human CCRF-CEM cells at 4.3 uM in presence of bone-marrow derived stromal cell-conditioned medium
MOLM-14 [19] = test: Potentiation of idelalisib-induced antileukemic activity against human MOLM-14 cells at 4.3 uM in presence of bone-marrow derived stromal cell-conditioned medium
MOLM-14 [20] = test: Potentiation of seliciclib-induced antileukemic activity against human MOLM-14 cells at 4.3 uM in presence of bone-marrow derived stromal cell-conditioned medium
CCRF-CEM [21] = test: Potentiation of birinapant-induced antileukemic activity against human CCRF-CEM cells at 4.3 uM in presence of bone-marrow derived stromal cell-conditioned medium
MOLM-14 [22] = test: Potentiation of entinostat-induced antileukemic activity against human MOLM-14 cells at 4.3 uM in presence of bone-marrow derived stromal cell-conditioned medium
MOLM-14 [23] = test: Potentiation of etoposide-induced antileukemic activity against human MOLM-14 cells at 4.3 uM in presence of bone-marrow derived stromal cell-conditioned medium
CCRF-CEM [24] = test: Potentiation of selinexor-induced antileukemic activity against human CCRF-CEM cells at 4.3 uM in presence of bone-marrow derived stromal cell-conditioned medium
U-937 [25] = test: Potentiation of cladribine-induced antileukemic activity against human U-937 cells at 4.3 uM in presence of bone-marrow derived stromal cell-conditioned medium

Measured: Activity

CC(=O)N1CCc2c(sc3nc(SCC(=O)Nc4cccnc4C)n(Cc4ccco4)c(=O)c23)C1
inactive: all assays above
